Results: patent US20250027123A1, “Compositions, Systems, and Methods for Performing a Mannich Cyclization Reaction” (The Regents of the University of California, priority 2023, published 2025)

Legend:
LolT [1] = biological target: T1, LolT (Penicillium expansum, UniProt A0A0A2J6G6); format: biochemical; conditions: 10 μM LolT, 4 mM diamino acid, pH 7.5 in D2O, 28° C.
Method: FIGS. 16A-16D provides reaction schematics and data of hydrogen-deuterium exchange assay of LolT with diamino acid substrate analogues. All reactions were monitored by 1H-NMR spectra and boiled enzymes were used as control. For mass data analysis, the reaction mixtures were derivatized with Fmoc-Cl.
H/D exchange assay. […] Reaction was incubated at 28° C. and monitored by NMR and LC-MS (reaction mixture was derivatized with Fmoc-Cl as described above before MS analysis). Fully deuterated products were further derivatized with Marfey's reagent (TCL) for chiral analysis. Briefly, an 80 μL reaction mixture was mixed with 20 μL acetone solution of Marfey's reagent (50 mM) and 20 μL NaHCO3 solution (1 M). The resulting mixture was incubated in a 42° C. water bath for 30 min. Next, 10 μL HCl (2M) was added to the derivatization mixture to quench the reaction. The resultant solution was analyzed on a Shimadzu LC-40 HPLC equipped with a Cosmosil, C18 AR-II analytical column. Derivatized amino acids were eluted with a linear gradient from 10% acetonitrile and to 40% acetonitrile over 20 min with a flow rate at 1 mL/min. All HPLC solvents (water and acetonitrile) were supplemented with 0.1% (v/v) formic acid.

LolD = biological target: T2, LolD (Epichloe uncinata, UniProt Q5MNI5); test: Enzymatic assay for LolD (conversion monitored by HPLC/LC-MS after Fmoc-Cl derivatization); format: biochemical, E. uncinate; conditions: phosphate buffer pH 7.5, 28° C.
T2 construct: Bacterial expression plasmids were ordered from Twist Biosciences; made in house; host or cells: E. coli BL21(DE3)
T2 sequence (Q5MNI5 1-420): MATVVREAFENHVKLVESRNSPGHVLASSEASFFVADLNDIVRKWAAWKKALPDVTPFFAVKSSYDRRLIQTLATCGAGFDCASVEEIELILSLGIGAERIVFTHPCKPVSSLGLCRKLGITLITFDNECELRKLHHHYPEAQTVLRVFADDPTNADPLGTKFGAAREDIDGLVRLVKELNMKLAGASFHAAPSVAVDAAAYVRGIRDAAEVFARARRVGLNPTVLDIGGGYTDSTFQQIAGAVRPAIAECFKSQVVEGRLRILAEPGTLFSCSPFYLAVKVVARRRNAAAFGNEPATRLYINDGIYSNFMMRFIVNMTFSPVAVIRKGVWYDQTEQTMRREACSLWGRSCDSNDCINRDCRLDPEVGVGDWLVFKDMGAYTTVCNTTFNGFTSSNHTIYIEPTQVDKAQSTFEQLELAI
Text: FIGS. 4A-4D provides schematics and data identifying LolT as a PLP-dependent Mannich cyclase. FIG. 4A provides a schematic depicting an elucidated pathway for the pyrrolizidine formation of loline. FIG. 4B provides HPLC analysis showing the reactions catalysed by LolT and LolD. All reactions were repeated for at least 3 times. Products were derivatized with Fmoc-Cl and analyzed by HPLC using a C18 column (Phenomenex Kinetex, 1.7 μm, 2.0×100 mm) with a linear elution gradient of 2-98% MeCN—H2O solvent system supplemented with 0.1% formic acid as additive. FIG. 4C provides DFT-calculated Mannich cyclization transition state for anti TS-1. FIG. 4D provides DFT-calculated Mannich cyclization transition state for syn TS-2.
FIGS. 7A-7B provides data of control experiments testing the function LolT and LolD using alternative substrates. FIG. 7A: Incubating LolD (10 μM) with 2 (1 mM) in phosphate buffer (pH 7.5) for 12 hrs at 28° C. FIG. 7B: Incubating LolT (1 μM) with decarboxylated 2 (1 mM) in phosphate buffer (pH 7.5) for 12 hrs at 28° C. All reactions were derivatized with Fmoc-Cl (50 mM) and analyzed by HPLC and LCMS. Decarboxylated 2 was prepared in situ by global deprotection of 12b, synthesis of 12b.
Enzymatic assays for LolT and LolD. […] The product was quantified based on the peak area of derivatized sample and compared with standard curve. […]

LolT [2] = biological target: T1, LolT; test: Steady-state kinetic analysis of LolT-catalyzed Mannich cyclization; format: biochemical, P. expansum; conditions: reaction forming the named product
Method: FIGS. 10A-10B provide data of steady-state kinetic study of LolT and LolD. […] The results from both Fmoc-Cl and OPA derivatization were shown for comparison.
FIG. 10B: Kinetic analysis of LolD-catalyzed nonoxidative decarboxylation. All reactions were performed in assay buffer: phosphate buffer (pH 7.5), 50 μM PLP, corresponding substrate at various concentrations. For 5-endo cyclization, LolT was added to a final concentration of 0.1 μM and the reaction was quenched after 1 min; while for 6-endo cyclization, LolT was added to a final concentration of 1 μM and the reaction was quenched after 1 min, and for 7-endo cyclization, LolT was added to a final concentration of 10 μM and the reaction was quenched after 5 min. For decarboxylation reaction, LolD was added to a final concentration of 1 μM and the reaction was quenched after 20 min. The derivatization method was described in the methods section. All assays were performed in triplicates at 28° C. and individual point was shown on the plot. Except for reaction forming 5, all data were fitted to the standard Michalis-Menton equation.
Enzymatic assays for LolT and LolD. A typical reaction mixture (˜50 μl) includes ˜1 mM amino acid substrate in the assay buffer (50 mM K2HPO4, 50 μM PLP, pH 7.5). […] The product was quantified based on the peak area of derivatized sample and compared with standard curve. […]

LolT [3] = biological target: T1, LolT; test: Two-component Mannich cyclization assay; format: biochemical, P. expansum; conditions: diamino acid plus aldehyde, KPi buffer
Method: Two-component Mannich cyclization assay. A typical reaction mixture at analytical scale (˜50 μL) includes 5 μM LolT, 5 mM diamino acid substrate, and 25 mM aldehyde substrates in 50 mM KPi buffer supplemented with 5% (v/v) DMSO. The reaction mixture was taken at different time points and derivatized with ortho-phthaldialdehyde (OPA) and 5-mercaptopentanoic acid before analysis on LC-MS. The pH value, reaction temperature, reaction time, and free PLP concentration (0.1%-10% mol) were optimized for selected reactions according to the analytic yield and diastereisomeric ratio (d.r.). Optimized reactions were scaled up to isolate the corresponding product for structural determination. To ease product isolation, the reaction mixtures were derivatized with Boc anhydride and isolated by reverse-phase chromatography. The isolated Boc-protected products were deprotected with TFA/CH2Cl2 and the isolation yields were calculated based on the Boc-protected form. To determine the enantiomeric excess (e.e.), isolated products were derivatized with Na-(5-fluoro-2,4-dinitrophenyl)-L-leucinamide and Na-(5-fluoro-2,4-dinitrophenyl)-D-leucinamide and separated on LC-MS. Briefly, 10 μL of amino acid product (10 mM in MeOH) was mixed with 10 μL of Na2CO3 (1 mM) and 10 μL of derivatizing reagent. […] The resulting mixture was analyzed by LC-MS.

T1 sequence (A0A0A2J6G6 entry or part of it): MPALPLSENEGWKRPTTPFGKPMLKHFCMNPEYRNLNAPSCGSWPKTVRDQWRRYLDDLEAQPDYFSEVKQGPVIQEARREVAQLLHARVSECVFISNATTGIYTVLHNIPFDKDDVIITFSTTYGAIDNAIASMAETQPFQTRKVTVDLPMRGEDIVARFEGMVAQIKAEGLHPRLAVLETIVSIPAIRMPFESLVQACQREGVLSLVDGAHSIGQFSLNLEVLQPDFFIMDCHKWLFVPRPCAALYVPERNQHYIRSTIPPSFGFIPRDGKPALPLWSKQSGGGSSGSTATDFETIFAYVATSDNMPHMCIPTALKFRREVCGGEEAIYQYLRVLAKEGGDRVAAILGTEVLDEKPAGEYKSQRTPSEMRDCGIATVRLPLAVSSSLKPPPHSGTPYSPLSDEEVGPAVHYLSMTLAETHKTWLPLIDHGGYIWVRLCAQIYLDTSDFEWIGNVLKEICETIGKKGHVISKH

Row | Compound | Cα-H H/D exchange (carbanion formation) with LolT in D2O (in words) (LolT [1]) | decrease of catalytic efficiency in comparison with 5-endo-trig cyclization to make 3 (LolT [2]) | also measured
1 | NCC[C@@H](N)C(=O)O [D-Dab] | no H/D exchange occurred |  | 
2 | NCC[C@H](N)C(=O)O [L-Dab, (S)-2,4-diaminobutanoic acid] | rapidly washed out |  | 
3 | N[C@@]1(C(=O)O)CCN2CCC[C@@H]21 [compound 3, (1S,7aR)-1-aminohexahydro-1H-pyrrolizine-1-carboylic acid] |  |  | conversion on incubation with LolD (in words) (LolD): quantitative conversion
4 | N[C@@]1(C(=O)O)CCCN2CCC[C@@H]21 [compound 5, (8S,8aR)-8-aminooctahydroindolizine-8-carboxylic acid] |  | ~12 fold | 
5 | N[C@@]1(C(=O)O)CCCCN2CCC[C@@H]21 [compound 7, (9S,9aR)-9-aminooctahydro-1H-pyrrolo[1,2-a]azepine-9-carboxylic acid] |  | ~1,000 fold | 
6 | NCCCC[C@H](N)C(=O)O [lysine] |  |  | Mannich cyclization as amino acid donor with aldehydes (in words) (LolT [3]): No Mannich cyclization reaction took place
